Experimental data taken from PubChem BioAssay AID2060492 (Molecular Pharmacology Branch, DTP, NCI, 2025).

Tested on: 695427-040-R-J1-PDC complex spheroids, viability percent T/C
Assay: Anticancer human tumor 695427-040-R-J1-PDC patient-derived colon adenocarcinoma cell line growth inhibition [GQUAD]
Conditions: for IC50: curve of first compound; for viability, T/C: stronger effect = lower value
Method in brief: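 Viability of tumor cells grown as complex spheroids with endothelial and stromal cells, exposed to drug combinations. Top concentration at or near clinical Cmax (else 10 microM), diluted in half-log increments.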

[1] = second compound 0.0316 µM, first compound 0.0316 µM
[2] = second compound 0.0316 µM, first compound 0.1 µM
[3] = second compound 0.0316 µM, first compound 0.316 µM
[4] = second compound 0.0316 µM, first compound 1 µM
[5] = second compound 0.0316 µM, first compound 3.16 µM
[6] = second compound 0.0316 µM, first compound 10 µM
[7] = second compound 0.1 µM, first compound 0.0316 µM
[8] = second compound 0.1 µM, first compound 0.1 µM
[9] = second compound 0.1 µM, first compound 0.316 µM
[10] = second compound 0.1 µM, first compound 1 µM
[11] = second compound 0.1 µM, first compound 3.16 µM
[12] = second compound 0.1 µM, first compound 10 µM
[13] = second compound 0.316 µM, first compound 0.0316 µM
[14] = second compound 0.316 µM, first compound 0.1 µM
[15] = second compound 0.316 µM, first compound 0.316 µM
[16] = second compound 0.316 µM, first compound 1 µM
[17] = second compound 0.316 µM, first compound 3.16 µM
[18] = second compound 0.316 µM, first compound 10 µM
[19] = second compound 1 µM, first compound 0.0316 µM
[20] = second compound 1 µM, first compound 0.1 µM
[21] = second compound 1 µM, first compound 0.316 µM
[22] = second compound 1 µM, first compound 1 µM
[23] = second compound 1 µM, first compound 3.16 µM
[24] = second compound 1 µM, first compound 10 µM
[25] = second compound 3.16 µM, first compound 0.0316 µM
[26] = second compound 3.16 µM, first compound 0.1 µM
[27] = second compound 3.16 µM, first compound 0.316 µM
[28] = second compound 3.16 µM, first compound 1 µM
[29] = second compound 3.16 µM, first compound 3.16 µM
[30] = second compound 3.16 µM, first compound 10 µM
[31] = second compound 10 µM, first compound 0.0316 µM
[32] = second compound 10 µM, first compound 0.1 µM
[33] = second compound 10 µM, first compound 0.316 µM
[34] = second compound 10 µM, first compound 1 µM
[35] = second compound 10 µM, first compound 3.16 µM
[36] = second compound 10 µM, first compound 10 µM
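Also: spheroids exposed to compounds for seven days before readout.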

## COc1ncnc(C2CC2)c1-c1ncc2cnn(Cc3ccc(-c4nc(C(F)(F)F)cn4C(C)C)cc3)c2n1 + Cc1[nH]c2ccc(F)cc2c1-c1nc2c3cccnc3c3ncccc3c2[nH]1
Second compound 0.0316 µM
  IC50: > 10 µM
Second compound 0.1 µM
  IC50: > 10 µM
Second compound 0.316 µM
  IC50: > 10 µM
Second compound 1 µM
  IC50: > 10 µM
Second compound 3.16 µM
  IC50: > 10 µM
Second compound 10 µM
  IC50: > 10 µM
[1]
  viability, T/C: 98%
[2]
  viability, T/C: 96.7%
[3]
  viability, T/C: 92.9%
[4]
  viability, T/C: 106%
[5]
  viability, T/C: 112%
[6]
  viability, T/C: 70%
[7]
  viability, T/C: 107%
[8]
  viability, T/C: 93.9%
[9]
  viability, T/C: 98.5%
[10]
  viability, T/C: 98.4%
[11]
  viability, T/C: 100%
[12]
  viability, T/C: 71%
[13]
  viability, T/C: 99.5%
[14]
  viability, T/C: 91.9%
[15]
  viability, T/C: 94.6%
[16]
  viability, T/C: 106%
[17]
  viability, T/C: 105%
[18]
  viability, T/C: 65.6%
[19]
  viability, T/C: 91%
[20]
  viability, T/C: 86.3%
[21]
  viability, T/C: 101%
[22]
  viability, T/C: 96.3%
[23]
  viability, T/C: 94.1%
[24]
  viability, T/C: 67.8%
[25]
  viability, T/C: 76.5%
[26]
  viability, T/C: 77.5%
[27]
  viability, T/C: 73.3%
[28]
  viability, T/C: 80.1%
[29]
  viability, T/C: 98.4%
[30]
  viability, T/C: 66.5%
[31]
  viability, T/C: 82.2%
[32]
  viability, T/C: 73.5%
[33]
  viability, T/C: 83.1%
[34]
  viability, T/C: 81.8%
[35]
  viability, T/C: 95.4%
[36]
  viability, T/C: 73.8%

## CC[C@@]1(O)C(=O)OCc2c1cc1n(c2=O)Cc2cc3c(CN(C)C)c(O)ccc3nc2-1 + CN(C)c1ccc(Nc2c3ccc(NC(=O)CCN4CCCC4)cc3nc3cc(NC(=O)CCN4CCCC4)ccc23)cc1
Second compound 0.0316 µM
  IC50: > 0.316 µM
Second compound 0.1 µM
  IC50: > 0.316 µM
Second compound 0.316 µM
  IC50: > 0.316 µM
Second compound 1 µM
  IC50: > 0.316 µM
Second compound 3.16 µM
  IC50: > 0.316 µM
Second compound 10 µM
  IC50: > 0.316 µM
Second compound 0.0316 µM, first compound 0.000999 µM
  viability, T/C: 109%
Second compound 0.0316 µM, first compound 0.00316 µM
  viability, T/C: 95%
Second compound 0.0316 µM, first compound 0.00999 µM
  viability, T/C: 108%
[1]
  viability, T/C: 100%
Second compound 0.0316 µM, first compound 0.0999 µM
  viability, T/C: 104%
[3]
  viability, T/C: 91.6%
Second compound 0.1 µM, first compound 0.000999 µM
  viability, T/C: 117%
Second compound 0.1 µM, first compound 0.00316 µM
  viability, T/C: 101%
Second compound 0.1 µM, first compound 0.00999 µM
  viability, T/C: 96.8%
[7]
  viability, T/C: 101%
Second compound 0.1 µM, first compound 0.0999 µM
  viability, T/C: 98.9%
[9]
  viability, T/C: 85%
Second compound 0.316 µM, first compound 0.000999 µM
  viability, T/C: 97.6%
Second compound 0.316 µM, first compound 0.00316 µM
  viability, T/C: 104%
Second compound 0.316 µM, first compound 0.00999 µM
  viability, T/C: 100%
[13]
  viability, T/C: 111%
Second compound 0.316 µM, first compound 0.0999 µM
  viability, T/C: 100%
[15]
  viability, T/C: 95.8%
Second compound 1 µM, first compound 0.000999 µM
  viability, T/C: 101%
Second compound 1 µM, first compound 0.00316 µM
  viability, T/C: 95.2%
Second compound 1 µM, first compound 0.00999 µM
  viability, T/C: 96.1%
[19]
  viability, T/C: 99.9%
Second compound 1 µM, first compound 0.0999 µM
  viability, T/C: 97.8%
[21]
  viability, T/C: 93.7%
Second compound 3.16 µM, first compound 0.000999 µM
  viability, T/C: 99.2%
Second compound 3.16 µM, first compound 0.00316 µM
  viability, T/C: 100%
Second compound 3.16 µM, first compound 0.00999 µM
  viability, T/C: 96.2%
[25]
  viability, T/C: 103%
Second compound 3.16 µM, first compound 0.0999 µM
  viability, T/C: 110%
[27]
  viability, T/C: 82.1%
Second compound 10 µM, first compound 0.000999 µM
  viability, T/C: 94.3%
Second compound 10 µM, first compound 0.00316 µM
  viability, T/C: 84.8%
Second compound 10 µM, first compound 0.00999 µM
  viability, T/C: 92.2%
[31]
  viability, T/C: 88.3%
Second compound 10 µM, first compound 0.0999 µM
  viability, T/C: 91%
[33]
  viability, T/C: 88.6%

## Cc1cccc(N(C)C(=O)C2C(O)CCN2c2nc(C)cc(C(F)(F)F)c2C#N)c1 (stereo not drawn) + Cc1[nH]c2ccc(F)cc2c1-c1nc2c3cccnc3c3ncccc3c2[nH]1
Second compound 0.0316 µM
  IC50: > 10 µM
Second compound 0.1 µM
  IC50: > 10 µM
Second compound 0.316 µM
  IC50: > 10 µM
Second compound 1 µM
  IC50: > 10 µM
Second compound 3.16 µM
  IC50: > 10 µM
Second compound 10 µM
  IC50: > 10 µM
[1]
  viability, T/C: 109%
[2]
  viability, T/C: 124%
[3]
  viability, T/C: 105%
[4]
  viability, T/C: 106%
[5]
  viability, T/C: 95.2%
[6]
  viability, T/C: 92.3%
[7]
  viability, T/C: 102%
[8]
  viability, T/C: 88%
[9]
  viability, T/C: 107%
[10]
  viability, T/C: 76.3%
[11]
  viability, T/C: 104%
[12]
  viability, T/C: 86.4%
[13]
  viability, T/C: 93.2%
[14]
  viability, T/C: 91.2%
[15]
  viability, T/C: 98.8%
[16]
  viability, T/C: 76.9%
[17]
  viability, T/C: 91.4%
[18]
  viability, T/C: 80.5%
[19]
  viability, T/C: 79.7%
[20]
  viability, T/C: 89.4%
[21]
  viability, T/C: 85.2%
[22]
  viability, T/C: 82.5%
[23]
  viability, T/C: 93.8%
[24]
  viability, T/C: 87.1%
[25]
  viability, T/C: 70.2%
[26]
  viability, T/C: 75.2%
[27]
  viability, T/C: 84.8%
[28]
  viability, T/C: 91.1%
[29]
  viability, T/C: 95.6%
[30]
  viability, T/C: 72.6%
[31]
  viability, T/C: 68.4%
[32]
  viability, T/C: 78.4%
[33]
  viability, T/C: 83.8%
[34]
  viability, T/C: 79.9%
[35]
  viability, T/C: 88.3%
[36]
  viability, T/C: 72%

## COc1ccc([C@@H](O)c2cc(-c3ncnc4cc(N5CCOCC5)ccc34)c(F)cc2Cl)nn1 + Cc1cnc(CNC(=O)c2c(=O)c3ccc(N4CCCN(C)CC4)nc3n3c2sc2ccccc23)cn1
Second compound 0.0316 µM
  IC50: 2.95 µM
Second compound 0.1 µM
  IC50: 3.68 µM
Second compound 0.316 µM
  IC50: 2.08 µM
Second compound 1 µM
  IC50: 2.33 µM
Second compound 3.16 µM
  IC50: < 0.0316 µM
Second compound 10 µM
  IC50: < 0.0316 µM
[1]
  viability, T/C: 93.2%
[2]
  viability, T/C: 101%
[3]
  viability, T/C: 85.6%
[4]
  viability, T/C: 64.3%
[5]
  viability, T/C: 53.1%
[6]
  viability, T/C: 31.2%
[7]
  viability, T/C: 91.5%
[8]
  viability, T/C: 103%
[9]
  viability, T/C: 80.5%
[10]
  viability, T/C: 66.5%
[11]
  viability, T/C: 55.7%
[12]
  viability, T/C: 36.3%
[13]
  viability, T/C: 72.6%
[14]
  viability, T/C: 79.3%
[15]
  viability, T/C: 69.8%
[16]
  viability, T/C: 56.1%
[17]
  viability, T/C: 47.5%
[18]
  viability, T/C: 35.2%
[19]
  viability, T/C: 58%
[20]
  viability, T/C: 69.4%
[21]
  viability, T/C: 60.9%
[22]
  viability, T/C: 52.2%
[23]
  viability, T/C: 49.6%
[24]
  viability, T/C: 32%
[25]
  viability, T/C: 41.5%
[26]
  viability, T/C: 46.3%
[27]
  viability, T/C: 42.7%
[28]
  viability, T/C: 46%
[29]
  viability, T/C: 39.5%
[30]
  viability, T/C: 21.9%
[31]
  viability, T/C: 36.8%
[32]
  viability, T/C: 39.6%
[33]
  viability, T/C: 36.3%
[34]
  viability, T/C: 33.6%
[35]
  viability, T/C: 20.2%
[36]
  viability, T/C: 5.79%
